Holding throughout (assay): growth of human tumour cells (NCI), 48 h
The test system of assay [1] is ACHN.
In assay [2] the test system is CCRF-CEM.
Assay [3] concerns HCT-15.
In assay [4] the test system is HL-60.
Assay [5] deals with HOP-92.
Assay [6] has as its system IGROV-1.
For assay [7], the system named is K562.
The subject of assay [8] is M14.
Assay [9] has as its system NCI-H460.
Assay [10] deals with NCI-H522.
Assay [11] deals with OVCAR-5.
In assay [12] the test system is OVCAR-8.
For assay [13], the system named is RXF 393.
The subject of assay [14] is SF-295.
Assay [15] deals with SF-539.
Assay [16] relates to SK-MEL-28.
Assay [17] relates to SN12C.
The test system of assay [18] is SNB-19.
The test system of assay [19] is SR.
Assay [20] has as its system TK-10.

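Five compound concentrations were applied to cells in 96-well plates for 48 hours; endpoints were derived by simple linear interpolation of the resulting dose-response curve. Here, GI50 denotes the concentration required for 50% inhibition of growth.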 Calls of active or inactive are those of the source. Cut-off read from the data, not from the text of the source: active = GI50 up to about 1.1 µM and inactive = higher.

Consider ten compounds from ChEMBL document CHEMBL1201862, “PubChem BioAssay data set” (2004).

Turning to `CC1(CO)OC(n2cnc3cncnc32)CC1O` (stereo not given), the GI50 in assay [1] is > 100 µM (inactive); in assay [2] it was > 100 µM (inactive); in assay [3], > 100 µM; in assay [4], > 100 µM (inactive); in assay [5], > 100 µM (inactive); in assay [6], > 100 µM (inactive). Also, the GI50 in assay [7], in assay [8], in assay [9], in [10], in assay [11] and in assay [12] was > 100 µM (inactive) throughout. Besides, the GI50 in assay [13], in assay [14], in assay [15], in assay [16], in [17] and in assay [18] was > 100 µM (inactive) each time. In addition, the GI50 in assay [19] and in [20] was > 100 µM (inactive) each time.
As for `Cc1ccc(/C=C/C(=O)c2cc(CN(C)C)c(O)c(CN(C)C)c2)cc1`, the GI50 in assay [1] was 12.1 µM (inactive); in assay [2], 14.4 µM (inactive); in [3], 14.4 µM; in assay [4], 11.7 µM (inactive); in assay [5], 31.9 µM (inactive); in assay [6] it was 27.4 µM (inactive). The GI50 in assay [7] is 13.8 µM (inactive); in assay [8] it was 15.8 µM (inactive); in assay [9], 12 µM (inactive); in [10] it was 14.8 µM (inactive); in assay [11] it was 66.8 µM (inactive); in [12] it was 21.3 µM (inactive). Besides, the GI50 was 18.7 µM (inactive) in assay [13]; 13.8 µM (inactive) in [14]; 16.6 µM (inactive) in assay [15]; 17.6 µM (inactive) in [16]; 14.2 µM (inactive) in [17]; 18.2 µM (inactive) in assay [19]. Further, in [20], the GI50 was 28.8 µM (inactive).
Take `COc1ccc2nc3cc([N+](=O)[O-])ccc3c(Nc3ccc(S(=O)(=O)Nc4ncccn4)cc3)c2c1`: the GI50 in assay [1] is 28.8 µM (inactive); in assay [2], > 76.9 µM (inactive); in assay [3], > 69.8 µM; in [4], > 100 µM (inactive); in assay [5], > 44.7 µM (inactive); in assay [6] it was 15 µM (inactive). The GI50 in [7] is 35.4 µM (inactive); in assay [8], 48.8 µM (inactive); in assay [9], 61.5 µM (inactive); in [10], > 71.1 µM (inactive); in [11] it was > 100 µM (inactive); in assay [12] it was 45.2 µM (inactive). Also, the GI50 is > 100 µM (inactive) in assay [13]; 99.5 µM (inactive) in assay [14]; > 100 µM (inactive) in assay [15]; > 85.5 µM (inactive) in [16]; > 100 µM (inactive) in assay [17]; 6.24 µM (inactive) in assay [19]. For the same compound, in assay [20], the GI50 was 66.8 µM (inactive).
Take `O=C(COc1ccc(OCC(=O)NNC2=NC(c3cc(F)c(Cl)cc3Cl)CS2)c(Cl)c1)NNC1=NC(c2cc(F)c(Cl)cc2Cl)CS1` (stereo not given): the GI50 in [1] is 38.5 µM (inactive); in assay [2] it was 28.6 µM (inactive); in assay [3], 16.7 µM; in assay [4] it was 38.1 µM (inactive); in assay [5], 21.6 µM (inactive); in assay [6], 20.1 µM (inactive). In addition, the GI50 is 24 µM (inactive) in assay [7]; 74 µM (inactive) in [8]; 29.9 µM (inactive) in assay [9]; 14.2 µM (inactive) in assay [10]; 36.7 µM (inactive) in [11]; 20.8 µM (inactive) in assay [12]. The GI50 is 19.8 µM (inactive) in assay [13]; 19.8 µM (inactive) in assay [14]; 28.6 µM (inactive) in assay [15]; 29.5 µM (inactive) in assay [16]; 20.7 µM (inactive) in [17]; 42.5 µM (inactive) in assay [18]. The GI50 in assay [19] was 35.9 µM (inactive); in assay [20], 25.8 µM (inactive).
In the case of `CN(CCCN=C=S)CCCN1c2ccccc2CCc2ccccc21`, the GI50 is 1.75 µM (inactive) in assay [1]; 1.85 µM (inactive) in [2]; 1.49 µM in assay [3]; 1.94 µM (inactive) in assay [4]; 2.07 µM (inactive) in assay [5]; 1.79 µM (inactive) in [6]. Besides, the GI50 in assay [7] was 0.45 µM (active); in assay [8], 1.71 µM (inactive); in assay [9], 1.82 µM (inactive); in assay [10], 1.95 µM (inactive); in assay [11], 1.81 µM (inactive); in assay [12], 1.78 µM (inactive). Besides, the GI50 in [13] was 1.92 µM (inactive); in [14], 1.71 µM (inactive); in assay [15] it was 1.76 µM (inactive); in assay [16], 2.06 µM (inactive); in assay [17] it was 1.69 µM (inactive); in [18] it was 1.72 µM (inactive). Also, the values for the GI50 in assay [19] and in [20] were 0.456 µM (active) and 1.82 µM (inactive), respectively.
In the case of `Cc1cc2c(cc1C)[n+]([O-])c(C(=O)N1CCN(c3ccc([N+](=O)[O-])cc3)CC1)c(C)[n+]2[O-]`, the GI50 in [1] is 2.84 µM (inactive); in assay [2] it was > 100 µM (inactive); in assay [3], 77.6 µM; in assay [4], > 100 µM (inactive); in [5], 23.6 µM (inactive); in assay [6], 27.6 µM (inactive). For the same compound, the GI50 in assay [7] was > 100 µM (inactive); in assay [8], 32.5 µM (inactive); in assay [9], 22.9 µM (inactive); in assay [10], 75.3 µM (inactive); in assay [11], 62.8 µM (inactive); in [12], 27.5 µM (inactive). The GI50 in [13] was 14.4 µM (inactive); in [14], 16.1 µM (inactive); in [15], 17.7 µM (inactive); in assay [16] it was > 100 µM (inactive); in assay [17] it was 63.7 µM (inactive); in [18], 64.9 µM (inactive). Also, the results for the GI50 in assay [19] and in [20] were > 100 µM (inactive) and 18.1 µM (inactive), respectively.
As for `CCOC(=O)C(C(=O)OCC)c1ccc([N+](=O)[O-])o1`, the GI50 in assay [1] is 10.2 µM (inactive); in assay [2] it was 2.53 µM (inactive); in [3] it was 17.3 µM; in assay [4] it was 2.65 µM (inactive); in assay [5], 6.62 µM (inactive); in assay [6] it was 20.3 µM (inactive). Besides, the GI50 in [7] is 3.43 µM (inactive); in assay [8], 13.7 µM (inactive); in [9] it was 20.3 µM (inactive); in assay [10], 1.74 µM (inactive); in assay [11] it was 18.2 µM (inactive); in assay [12], 5.24 µM (inactive). The GI50 in assay [13] was 12.4 µM (inactive); in assay [14], 20.6 µM (inactive); in [15], 19.9 µM (inactive); in assay [16], 14.1 µM (inactive); in assay [17], 18 µM (inactive); in assay [18], > 100 µM (inactive). Besides, the figures for the GI50 in [19] and in [20] were 6.93 µM (inactive) and 16.9 µM (inactive), respectively.
Turning to `Cn1c2ccccc2c2c3c(c4c5ccccc5n(C)c4c21)C(=O)c1ccccc1C3=O`, the GI50 in assay [1] was 28.2 µM (inactive); in assay [2], > 100 µM (inactive); in [3], > 100 µM; in assay [4], 21 µM (inactive); in assay [5] it was 53.3 µM (inactive); in [6], 31 µM (inactive). Also, the GI50 is 76.9 µM (inactive) in [8]; 64.1 µM (inactive) in assay [9]; 18.9 µM (inactive) in assay [10]; > 100 µM (inactive) in assay [11]; 40.1 µM (inactive) in assay [12]; 16.3 µM (inactive) in [13]. Besides, the GI50 was 44.1 µM (inactive) in assay [14]; 16.6 µM (inactive) in assay [15]; > 100 µM (inactive) in [16]; 61.2 µM (inactive) in assay [17]; 22.8 µM (inactive) in assay [18]; 18.7 µM (inactive) in assay [19]. Also, the GI50 in assay [20] is 24.3 µM (inactive).
Turning to `CN1C=C(C(N)=O)Cc2ccsc21`, the GI50 is > 100 µM (inactive) in [1]; > 100 µM (inactive) in [2]; > 100 µM in [3]; > 100 µM (inactive) in assay [4]; > 100 µM (inactive) in [5]; > 100 µM (inactive) in assay [6]. The GI50 in assay [7], in [8], in [9], in assay [10], in assay [11] and in assay [12] was > 100 µM (inactive) each time. Besides, the GI50 in assay [13], in [14], in assay [15], in assay [16], in assay [17] and in assay [18] was > 100 µM (inactive) each time. In [19], the GI50 is > 100 µM (inactive).
Regarding `N/N=c1\c2ccccc2c2ccc3c4ccccc4/c(=N\N)c3c12`, the GI50 in assay [1] was > 100 µM (inactive); in [2] it was > 100 µM (inactive); in [3] it was > 100 µM; in assay [4], > 100 µM (inactive); in assay [5], > 100 µM (inactive); in [6], > 100 µM (inactive). Further, the GI50 in [7], in assay [8], in [9], in assay [10], in [11] and in [12] was > 100 µM (inactive) each time. Moreover, the GI50 in assay [13], in assay [14], in assay [15], in assay [16], in assay [17] and in assay [18] was > 100 µM (inactive) each time. The GI50 in assay [19] was 25.7 µM (inactive).
